Results published in patent US8530461B2 (Boehringer Ingelheim International GmbH, priority 2011, dated 2013).
pIC50: −log10 of the molar value. Like-named read-outs stand apart in the source and are kept apart here.

Target: T1, human ACC2 (Homo sapiens, UniProt O00763)
T1 construct: made in house; host or cells: insect cells (baculoviral expression system)
Test: ACC2 assay, spectrophotometric 384 well assay (NADH-linked, coupled lactate dehydrogenase/pyruvate kinase)
Format: biochemical
Conditions: human ACC2 construct lacking 128 N-terminal amino acids, 25° C., 340 nm, 15 minutes
Outline: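 N-terminally truncated (Δ128) human ACC2 expressed in baculovirus/insect cells; ADP formation coupled via pyruvate kinase/lactate dehydrogenase to NADH consumption, pH 7.5, 25 mM KHCO3, 1% DMSO. Reaction started with NADH, acetyl-CoA and ATP (500 uM f.c.); A340 slope over 15 min at 25° C, IC50 by four-parameter fit after subtracting no-acetyl-CoA controls.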

T1 sequence (O00763 129-2458 limits assumed): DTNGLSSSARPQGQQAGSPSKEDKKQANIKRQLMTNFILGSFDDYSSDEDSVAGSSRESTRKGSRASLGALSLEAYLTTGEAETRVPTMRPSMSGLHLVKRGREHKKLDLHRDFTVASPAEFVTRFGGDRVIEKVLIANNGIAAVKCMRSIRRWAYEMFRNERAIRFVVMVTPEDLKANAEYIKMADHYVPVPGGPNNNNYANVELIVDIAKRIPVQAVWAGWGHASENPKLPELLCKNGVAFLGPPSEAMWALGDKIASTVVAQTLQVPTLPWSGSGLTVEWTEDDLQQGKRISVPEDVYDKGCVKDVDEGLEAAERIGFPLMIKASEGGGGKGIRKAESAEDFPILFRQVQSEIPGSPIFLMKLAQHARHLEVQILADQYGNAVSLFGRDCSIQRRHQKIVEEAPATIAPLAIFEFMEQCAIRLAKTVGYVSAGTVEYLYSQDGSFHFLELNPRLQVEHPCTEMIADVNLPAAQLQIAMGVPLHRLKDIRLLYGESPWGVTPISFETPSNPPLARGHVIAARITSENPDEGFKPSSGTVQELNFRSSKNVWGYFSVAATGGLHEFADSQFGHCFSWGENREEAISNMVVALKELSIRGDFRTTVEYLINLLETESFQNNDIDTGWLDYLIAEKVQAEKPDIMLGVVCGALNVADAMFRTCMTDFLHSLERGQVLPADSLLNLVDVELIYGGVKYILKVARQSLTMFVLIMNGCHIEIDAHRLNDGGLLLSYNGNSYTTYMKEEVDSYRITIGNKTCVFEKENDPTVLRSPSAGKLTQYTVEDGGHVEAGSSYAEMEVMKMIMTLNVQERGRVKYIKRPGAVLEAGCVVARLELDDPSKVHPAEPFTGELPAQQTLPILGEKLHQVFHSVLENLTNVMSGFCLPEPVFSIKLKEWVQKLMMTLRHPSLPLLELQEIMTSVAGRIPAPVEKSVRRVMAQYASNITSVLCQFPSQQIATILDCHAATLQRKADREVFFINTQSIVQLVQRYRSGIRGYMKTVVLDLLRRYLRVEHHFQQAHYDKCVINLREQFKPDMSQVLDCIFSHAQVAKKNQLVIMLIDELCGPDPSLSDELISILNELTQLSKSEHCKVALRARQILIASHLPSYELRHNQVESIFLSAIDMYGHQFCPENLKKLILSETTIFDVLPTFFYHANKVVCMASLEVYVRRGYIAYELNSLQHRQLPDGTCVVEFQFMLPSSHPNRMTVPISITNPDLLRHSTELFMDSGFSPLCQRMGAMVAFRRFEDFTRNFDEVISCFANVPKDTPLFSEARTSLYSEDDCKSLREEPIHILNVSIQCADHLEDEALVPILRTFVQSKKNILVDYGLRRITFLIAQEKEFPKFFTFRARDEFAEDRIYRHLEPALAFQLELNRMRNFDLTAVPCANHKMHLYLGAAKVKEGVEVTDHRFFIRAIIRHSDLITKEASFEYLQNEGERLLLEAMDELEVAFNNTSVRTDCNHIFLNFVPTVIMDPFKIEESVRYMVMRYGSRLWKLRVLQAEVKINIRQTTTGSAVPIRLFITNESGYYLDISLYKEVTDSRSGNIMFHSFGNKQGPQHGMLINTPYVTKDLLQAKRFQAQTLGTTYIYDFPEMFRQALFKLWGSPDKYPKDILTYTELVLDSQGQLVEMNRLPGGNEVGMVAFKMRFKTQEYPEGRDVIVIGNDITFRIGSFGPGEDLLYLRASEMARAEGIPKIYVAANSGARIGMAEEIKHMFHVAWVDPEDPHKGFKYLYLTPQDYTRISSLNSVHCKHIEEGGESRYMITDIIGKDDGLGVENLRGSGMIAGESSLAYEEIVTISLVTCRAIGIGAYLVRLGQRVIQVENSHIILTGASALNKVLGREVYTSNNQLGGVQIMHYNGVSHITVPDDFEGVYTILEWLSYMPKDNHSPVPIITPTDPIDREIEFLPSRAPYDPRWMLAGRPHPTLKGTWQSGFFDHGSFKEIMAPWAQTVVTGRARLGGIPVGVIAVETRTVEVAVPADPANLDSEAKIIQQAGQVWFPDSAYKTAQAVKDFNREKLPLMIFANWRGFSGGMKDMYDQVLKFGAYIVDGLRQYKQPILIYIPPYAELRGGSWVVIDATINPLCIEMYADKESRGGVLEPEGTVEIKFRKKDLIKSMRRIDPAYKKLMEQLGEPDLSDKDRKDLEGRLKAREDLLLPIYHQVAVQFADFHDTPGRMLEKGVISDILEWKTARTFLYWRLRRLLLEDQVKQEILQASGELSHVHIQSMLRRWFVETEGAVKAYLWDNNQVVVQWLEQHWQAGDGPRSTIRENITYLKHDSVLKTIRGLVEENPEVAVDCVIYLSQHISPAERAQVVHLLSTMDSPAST

SMILES	pIC50 (ACC2 assay, read-out: IC50)	pIC50 (IC50, ACC2 assay)
CCOc1ccc(OC2CN(c3ccc([C@H](C)NC(=O)C4CNC(=O)C4)cc3)C2)cc1 (some centres unmarked) [Example 1.57]	5.89	
CCOc1cccc(OC2CN(c3ccc([C@H](C)NC(C)=O)cc3)C2)n1 [Example 12.16]	6.42	
CC(=O)N[C@@H](C)c1ccc(N2CC(Oc3ccc(C(C)(C)C)cc3)C2)cc1 [Example 6.1, (S)—N-(1-{4-[3-(4-tert-Butyl-phenoxy)-azetidin-1-yl]-phenyl}-ethyl)-acetamide]	6.59	
C#CCCC(=O)N[C@@H](C)c1ccc(N2CC(Oc3ccc(OCC)cc3)C2)cc1 [Example 1.77]	5.98	
CC(=O)N[C@@H](C)c1ccc(N2CC(Oc3ccnc(OCC(C)C)c3)C2)cc1 [Example 11.3]	7.22	
CCOc1ccc(OC2CN(c3ccc([C@H](C)NC(=O)COC)cc3)C2)cc1 [Example 1.3]	5.98	
CCOc1ccc(OC2CN(c3ccc([C@H](C)NC(=O)C4CC(OC)C4)cc3)C2)cc1 (some centres unmarked) [Example 1.19]	6.23	
CCOc1ccc(OC2CN(c3ccc([C@H](C)NC(=O)c4ocnc4C)cc3)C2)cc1 [Example 1.35]	6.40	
CC(=O)N[C@@H](C)c1ccc(N2CC(Oc3ccc(OC(C)C)cc3)C2)cc1 [Example 9.1, (S)—N-(1-{4-[3-(4-Isopropoxy-phenoxy)-azetidin-1-yl]-phenyl}-ethyl)-acetamide]	7.15	
CCOc1ccc(OC2CN(c3ccc([C@H](C)NC(=O)CCOC)cc3)C2)cc1 [Example 1.67]	5.89	
CCOc1ccc(OC2CN(c3ccc([C@H](C)NC(=O)NC)cc3)C2)cc1 [Example 4.3]	6.00	
C[C@H](NC(=O)C1CC1)c1ccc(N2CC(Oc3ccc(OC(F)(F)F)cc3)C2)cc1 [Example 10.20]	5.36	
COc1ccc(OC2CN(c3ccc([C@H](C)NC(C)=O)cc3)C2)c(F)c1 [Example 10.4]	6.55	
C[C@H](NC(=O)c1cn[nH]c1)c1ccc(N2CC(Oc3ccc(OCC4CC4)cc3)C2)cc1 [Example 1.86]	7.30	
CCOc1ccc(OC2CN(c3ccc([C@H](C)NC(=O)c4ccc5c(c4)nnn5C)cc3)C2)cc1 [Example 1.48]	5.47	
CCOc1ccc(OC2CN(c3ccc([C@H](C)NC(=O)c4occc4C)cc3)C2)cc1 [Example 1.42]	5.77	
CC(=O)N[C@@H](C)c1ccc(N2CC(Oc3cccc(N4CCC(C)CC4)n3)C2)cc1 [Example 12.4]	6.66	
CCOc1ccc(OC2CN(c3ccc([C@H](C)NC(=O)CF)cc3)C2)cc1 [Example 1.16]		6.96
CCOc1ccc(OC2CN(c3ccc([C@H](C)NC(=O)C(C)O)cc3)C2)cc1 (some centres unmarked) [Example 1.79]	5.76	
CCOc1ccc(OC2CN(c3ccc([C@H](C)NC(=O)C(C)F)cc3)C2)cc1 (some centres unmarked) [Example 1.43]	6.49	
CCOc1ccc(OC2CN(c3ccc([C@H](C)NC(=O)c4ccno4)cc3)C2)cc1 [Example 2.4]	6.54	
C[C@H](NC(=O)N(C)C)c1ccc(N2CC(Oc3ccc(OCC4CC4)cc3)C2)cc1 [Example 4.15]	7.15	
CC(=O)N[C@@H](C)c1ccc(N2CC(Oc3ccc(C)cc3)C2)cc1 [Example 10.14]	6.21	
